Test results from patent US12685735B2 (Foghorn Therapeutics Inc., priority 2020, dated 2026).
Like-named read-outs stand apart in the source and are kept apart here.

Legend:
BRM = BRM (Homo sapiens, UniProt P51531); experiment: ATPase catalytic activity assay of BRM (ADP-Glo); format: biochemical; settings: for IC50: read-out: BRM IC50 (μM)*
Procedure, shortened: (§1)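 ATPase activity of BRG-1 or BRM was read by ADP-Glo. Residual ATP was depleted (40 min, room temperature), then ADP was converted to ATP (60 min, room temperature) and measured as luciferase luminescence.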

BRG-1 = BRG-1 (Homo sapiens, UniProt P51532); experiment: ATPase catalytic activity assay of BRG-1 (ADP-Glo); format: biochemical; settings: ATPase catalytic activity, ADP-Glo; for IC50: read-out: BRG1 IC50 (μM)*; for Emax: read-out: BRG1 Max % Inhibition
Procedure, shortened: as §1

Sequence of BRG-1 (P51532 whole entry): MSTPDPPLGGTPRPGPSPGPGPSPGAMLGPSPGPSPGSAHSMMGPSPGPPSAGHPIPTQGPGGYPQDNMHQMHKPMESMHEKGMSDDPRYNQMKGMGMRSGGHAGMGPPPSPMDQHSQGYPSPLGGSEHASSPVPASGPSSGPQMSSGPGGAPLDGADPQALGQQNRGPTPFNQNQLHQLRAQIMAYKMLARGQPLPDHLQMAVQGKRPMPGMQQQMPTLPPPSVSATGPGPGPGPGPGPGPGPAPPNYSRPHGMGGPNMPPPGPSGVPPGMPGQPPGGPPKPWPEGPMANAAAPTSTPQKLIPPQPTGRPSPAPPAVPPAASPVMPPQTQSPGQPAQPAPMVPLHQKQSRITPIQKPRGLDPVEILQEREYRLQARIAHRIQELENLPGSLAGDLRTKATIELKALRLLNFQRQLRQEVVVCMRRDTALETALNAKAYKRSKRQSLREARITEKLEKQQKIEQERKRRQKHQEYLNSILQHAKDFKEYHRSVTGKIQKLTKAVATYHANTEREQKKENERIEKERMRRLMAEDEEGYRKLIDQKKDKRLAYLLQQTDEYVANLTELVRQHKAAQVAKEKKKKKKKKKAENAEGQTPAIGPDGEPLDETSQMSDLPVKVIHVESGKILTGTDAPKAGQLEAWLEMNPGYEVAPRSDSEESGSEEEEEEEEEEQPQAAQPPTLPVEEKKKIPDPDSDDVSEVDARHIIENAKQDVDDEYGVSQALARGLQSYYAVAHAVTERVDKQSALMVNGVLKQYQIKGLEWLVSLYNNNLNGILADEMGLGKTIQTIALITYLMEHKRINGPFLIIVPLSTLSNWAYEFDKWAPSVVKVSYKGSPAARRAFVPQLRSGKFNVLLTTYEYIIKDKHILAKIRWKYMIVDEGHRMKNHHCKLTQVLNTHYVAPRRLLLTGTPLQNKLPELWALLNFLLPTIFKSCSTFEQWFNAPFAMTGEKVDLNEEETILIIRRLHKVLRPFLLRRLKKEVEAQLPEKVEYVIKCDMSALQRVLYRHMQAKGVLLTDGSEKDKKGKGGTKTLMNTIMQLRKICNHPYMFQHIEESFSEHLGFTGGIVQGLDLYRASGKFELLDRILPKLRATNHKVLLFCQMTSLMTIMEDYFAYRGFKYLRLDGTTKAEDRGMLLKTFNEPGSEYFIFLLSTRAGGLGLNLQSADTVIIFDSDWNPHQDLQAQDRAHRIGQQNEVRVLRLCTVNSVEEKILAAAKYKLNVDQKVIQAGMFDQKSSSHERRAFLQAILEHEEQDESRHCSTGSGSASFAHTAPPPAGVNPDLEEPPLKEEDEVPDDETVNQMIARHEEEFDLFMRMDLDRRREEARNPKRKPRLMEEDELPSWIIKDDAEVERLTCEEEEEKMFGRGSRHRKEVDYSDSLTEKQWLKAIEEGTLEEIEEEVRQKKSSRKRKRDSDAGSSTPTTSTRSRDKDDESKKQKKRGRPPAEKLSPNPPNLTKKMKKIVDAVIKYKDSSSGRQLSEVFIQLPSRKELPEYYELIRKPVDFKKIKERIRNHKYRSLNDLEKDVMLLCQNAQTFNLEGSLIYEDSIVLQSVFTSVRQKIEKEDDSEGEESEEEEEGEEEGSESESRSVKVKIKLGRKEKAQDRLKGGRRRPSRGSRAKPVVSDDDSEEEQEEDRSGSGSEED
Sequence of BRM (P51531 whole entry): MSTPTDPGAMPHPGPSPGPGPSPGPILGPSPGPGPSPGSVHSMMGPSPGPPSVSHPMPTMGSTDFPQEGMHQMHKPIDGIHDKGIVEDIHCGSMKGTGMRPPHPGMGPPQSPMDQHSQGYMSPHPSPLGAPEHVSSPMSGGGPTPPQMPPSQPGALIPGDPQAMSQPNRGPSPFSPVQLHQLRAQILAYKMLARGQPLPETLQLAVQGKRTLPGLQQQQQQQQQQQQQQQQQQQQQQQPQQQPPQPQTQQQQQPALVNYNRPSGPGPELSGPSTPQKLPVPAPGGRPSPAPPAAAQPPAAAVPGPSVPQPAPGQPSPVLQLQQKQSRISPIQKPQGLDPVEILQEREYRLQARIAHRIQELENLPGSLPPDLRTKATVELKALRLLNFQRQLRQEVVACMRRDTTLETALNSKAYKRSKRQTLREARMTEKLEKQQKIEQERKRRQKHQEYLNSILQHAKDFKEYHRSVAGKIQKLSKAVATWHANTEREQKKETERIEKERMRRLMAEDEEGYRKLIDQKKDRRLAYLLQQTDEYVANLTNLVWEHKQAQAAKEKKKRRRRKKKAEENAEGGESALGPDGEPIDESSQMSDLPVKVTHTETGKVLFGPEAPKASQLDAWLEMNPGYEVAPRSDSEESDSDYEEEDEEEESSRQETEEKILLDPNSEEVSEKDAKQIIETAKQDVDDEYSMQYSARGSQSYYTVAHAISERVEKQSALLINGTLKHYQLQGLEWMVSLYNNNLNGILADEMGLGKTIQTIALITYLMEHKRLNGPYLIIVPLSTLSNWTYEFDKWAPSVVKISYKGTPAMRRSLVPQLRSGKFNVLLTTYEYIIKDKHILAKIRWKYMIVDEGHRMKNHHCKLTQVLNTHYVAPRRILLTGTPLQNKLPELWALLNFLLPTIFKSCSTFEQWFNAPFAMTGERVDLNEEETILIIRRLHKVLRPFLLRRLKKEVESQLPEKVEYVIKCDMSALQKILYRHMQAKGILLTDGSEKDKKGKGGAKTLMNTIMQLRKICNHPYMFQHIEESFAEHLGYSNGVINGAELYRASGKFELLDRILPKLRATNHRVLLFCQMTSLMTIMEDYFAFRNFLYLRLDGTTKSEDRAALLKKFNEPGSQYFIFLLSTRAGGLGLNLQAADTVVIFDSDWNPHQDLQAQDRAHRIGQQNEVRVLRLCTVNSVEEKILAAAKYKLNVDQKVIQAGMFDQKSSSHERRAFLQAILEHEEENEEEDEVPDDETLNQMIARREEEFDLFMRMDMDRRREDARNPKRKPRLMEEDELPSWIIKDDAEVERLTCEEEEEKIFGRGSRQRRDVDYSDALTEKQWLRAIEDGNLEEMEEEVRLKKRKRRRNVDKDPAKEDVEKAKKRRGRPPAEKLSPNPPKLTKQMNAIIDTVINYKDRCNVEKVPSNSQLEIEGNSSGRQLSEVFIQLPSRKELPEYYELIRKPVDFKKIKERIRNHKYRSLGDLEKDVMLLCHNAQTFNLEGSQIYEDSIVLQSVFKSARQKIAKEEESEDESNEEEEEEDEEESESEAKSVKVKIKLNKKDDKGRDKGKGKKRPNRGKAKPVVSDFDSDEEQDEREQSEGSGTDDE

BRM Max % Inhibition (BRM)	IC50 (BRM)	IC50 (BRG-1)	Emax (BRG-1)	BRM Max % Inhibition (BRM; 30 nM BRM, 400 μM ATP)	IC50 (BRM; 30 nM BRM, 400 μM ATP)	IC50 (BRG-1; 30 nM BRG-1, 400 μM ATP)	Emax (BRG-1; 30 nM BRG-1, 400 μM ATP)	Compound
>95%	< 0.1 µM	< 0.1 µM	> 95%					COC1CN(c2cccc(-c3csc(NC(=O)CNC(=O)c4ccc5c(c4)[C@](C)(C#N)COC5)n3)c2)C1 [Compound 390, (R)-4-cyano-N-(2-((4-(3-(3-methoxyazetidin-1-yl)phenyl)thiazol-2-yl)amino)-2-oxoethyl)-4-methylisochromane-6-carboxamide]
>95%	< 0.1 µM	0.1 to 1 µM	> 95%					C[C@@]1(C#N)COCc2ccc(C(=O)NCC(=O)Nc3nc(-c4cccc([C@H]5CC5(F)F)c4)cs3)cc21 [Compound 391, (R)-4-cyano-N-(2-((4-(3-((R)-2,2-difluorocyclopropyl)phenyl)thiazol-2-yl)amino)-2-oxoethyl)-4-methylisochromane-6-carboxamide]
>90%	0.1 to 1 µM	> 5 µM	> 90%					C[C@@H]1CN(c2cccc(-c3csc(NC(=O)CNC(=O)c4cccc([C@]5(C)C[C@@H](O)C5)c4)n3)c2)C[C@H](C)O1 [Compound 392, N-(2-((4-(3-((cis)-2,6-dimethylmorpholino)phenyl)thiazol-2-yl)amino)-2-oxoethyl)-3-((1r,3r)-3-hydroxy-1-methylcyclobutyl)benzamide]
>95%	0.1 to 1 µM	> 5 µM	> 95%					C[C@@H]1CN(c2cccc(-c3csc(NC(=O)CNC(=O)c4cccc([C@]5(C)C[C@H](O)C5)c4)n3)c2)C[C@H](C)O1 [Compound 393, N-(2-((4-(3-((cis)-2,6-dimethylmorpholino)phenyl)thiazol-2-yl)amino)-2-oxoethyl)-3-((1s,3s)-3-hydroxy-1-methylcyclobutyl)benzamide]
>80%	0.1 to 1 µM	> 5 µM	> 80%					COc1cccc(-c2csc(NC(=O)CNC(=O)c3ccc4c(c3)C(C)(C#N)CCN4C)n2)c1 (stereo not shown) [Compound 394, 4-cyano-N-(2-((4-(3-methoxyphenyl)thiazol-2-yl)amino)-2-oxoethyl)-1,4-dimethyl-1,2,3,4-tetrahydroquinoline-6-carboxamide]
>80%	0.1 to 1 µM	> 5 µM	> 80%					CC(C)N1CCOc2ccc(C(=O)NCC(=O)Nc3nc(-c4cccc(N5C[C@@H](C)O[C@@H](C)C5)n4)cs3)cc21 [Compound 395, N-(2-((4-(6-((cis)-2,6-dimethylmorpholino)pyridin-2-yl)thiazol-2-yl)amino)-2-oxoethyl)-4-isopropyl-3,4-dihydro-2H-benzo[b][1,4]oxazine-6-carboxamide]
>90%	0.1 to 1 µM	1 to 5 µM	> 90%					C[C@@H]1CN(c2cccc(-c3csc(NC(=O)CNC(=O)c4ccc5c(c4)S(=O)(=O)CCC5)n3)c2)C[C@H](C)O1 [Compound 396, N-(2-((4-(3-((cis)-2,6-dimethylmorpholino)phenyl)thiazol-2-yl)amino)-2-oxoethyl)thiochromane-7-carboxamide 1,1-dioxide]
>95%	< 0.1 µM	0.1 to 1 µM	> 95%					COc1cccc(-c2csc(NC(=O)CNC(=O)c3ccc4c(c3)[C@](C)(C#N)COC4)n2)n1 [Compound 397, (R)-4-cyano-N-(2-((4-(6-methoxypyridin-2-yl)thiazol-2-yl)amino)-2-oxoethyl)-4-methylisochromane-6-carboxamide]
>95%	< 0.1 µM	0.1 to 1 µM	> 95%					C[C@@]1(C#N)COCc2ccc(C(=O)NCC(=O)Nc3nc(-c4cccc(C(F)F)c4)cs3)cc21 [Compound 398, (R)-4-cyano-N-(2-((4-(3-(difluoromethyl)phenyl)thiazol-2-yl)amino)-2-oxoethyl)-4-methylisochromane-6-carboxamide]
>95%	< 0.1 µM	0.1 to 1 µM	> 95%					COc1cc(-c2csc(NC(=O)CNC(=O)c3ccc4c(c3)[C@](C)(C#N)COC4)n2)ccc1F [Compound 399, (R)-4-cyano-N-(2-((4-(4-fluoro-3-methoxyphenyl)thiazol-2-yl)amino)-2-oxoethyl)-4-methylisochromane-6-carboxamide]
>95%	< 0.1 µM	0.1 to 1 µM	> 95%					COc1cc(-c2csc(NC(=O)CNC(=O)c3ccc4c(c3)[C@](C)(C#N)COC4)n2)ccn1 [Compound 400, (R)-4-cyano-N-(2-((4-(2-methoxypyridin-4-yl)thiazol-2-yl)amino)-2-oxoethyl)-4-methylisochromane-6-carboxamide]
>95%	< 0.1 µM	0.1 to 1 µM	> 95%					COc1cccc(-c2csc(NC(=O)CNC(=O)c3ccc4c(c3)[C@](C)(C#N)COC4)n2)c1 [Compound 401, (R)-4-cyano-N-(2-((4-(3-methoxyphenyl)thiazol-2-yl)amino)-2-oxoethyl)-4-methylisochromane-6-carboxamide]
>95%	< 0.1 µM	< 0.1 µM	> 95%					COc1cccc(-c2csc(NC(=O)CNC(=O)c3ccc4c(c3)[C@](C)(C#N)COC4)n2)c1F [Compound 402, (R)-4-cyano-N-(2-((4-(2-fluoro-3-methoxyphenyl)thiazol-2-yl)amino)-2-oxoethyl)-4-methylisochromane-6-carboxamide]
>90%	0.1 to 1 µM	1 to 5 µM	> 90%					C[C@@H]1CN(c2cccc(-c3csc(NC(=O)CNC(=O)c4ccc5c(c4)[C@](C)(CO)CN5C)n3)c2)C[C@H](C)O1 [Compound 403, (S)-N-(2-((4-(3-((cis)-2,6-dimethylmorpholino)phenyl)thiazol-2-yl)amino)-2-oxoethyl)-3-(hydroxymethyl)-1,3-dimethylindoline-5-carboxamide]
>80%	0.1 to 1 µM	> 5 µM	> 80%					C[C@@H]1CN(c2cccc(-c3csc(NC(=O)CNC(=O)c4ccc5c(c4)[C@@](C)(CO)CN5C)n3)c2)C[C@H](C)O1 [Compound 404, (R)-N-(2-((4-(3-((cis)-2,6-dimethylmorpholino)phenyl)thiazol-2-yl)amino)-2-oxoethyl)-3-(hydroxymethyl)-1,3-dimethylindoline-5-carboxamide]
>95%	< 0.1 µM	0.1 to 1 µM	> 95%					C[C@@H]1CN(c2cccc(-c3csc(NC(=O)CNC(=O)c4ccc5c(c4)C4(CC4)COC5)n3)n2)C[C@H](C)O1 [Compound 406, N-(2-((4-(6-((cis)-2,6-dimethylmorpholino)pyridin-2-yl)thiazol-2-yl)amino)-2-oxoethyl)spiro[cyclopropane-1,4′-isochromane]-6′-carboxamide]
>90%	0.1 to 1 µM	1 to 5 µM	> 90%					C[C@@H]1CN(c2cccc(-c3csc(NC(=O)CNC(=O)c4cccc([C@]5(C)COC[C@H]5O)c4)n3)n2)C[C@H](C)O1 [Compound 408]
>95%	< 0.1 µM	< 0.1 µM	> 95%					C[C@@H]1CN(c2cccc(-c3csc(NC(=O)CNC(=O)c4ccc5c(c4)[C@](C)(F)COC5)n3)n2)C[C@H](C)O1 [Compound 409, (S)-N-(2-((4-(6-((cis)-2,6-dimethylmorpholino)pyridin-2-yl)thiazol-2-yl)amino)-2-oxoethyl)-4-fluoro-4-methylisochromane-6-carboxamide]
>95%	< 0.1 µM	1 to 5 µM	> 95%					C[C@@H]1CN(c2cccc(-c3csc(NC(=O)CNC(=O)c4ccc5c(c4)[C@@]4(COC5)CC4(F)F)n3)n2)C[C@H](C)O1 [Compound 410, (R)-N-(2-((4-(6-((cis)-2,6-dimethylmorpholino)pyridin-2-yl)thiazol-2-yl)amino)-2-oxoethyl)-2,2-difluorospiro[cyclopropane-1,4′-isochromane]-6′-carboxamide]
>90%	0.1 to 1 µM	> 5 µM	> 90%					C[C@@H]1CN(c2cccc(-c3csc(NC(=O)CNC(=O)c4ccc5c(c4)[C@]4(COC5)CC4(F)F)n3)n2)C[C@H](C)O1 [Compound 411, (S)-N-(2-((4-(6-((cis)-2,6-dimethylmorpholino)pyridin-2-yl)thiazol-2-yl)amino)-2-oxoethyl)-2,2-difluorospiro[cyclopropane-1,4′-isochromane]-6′-carboxamide]
>90%	0.1 to 1 µM	0.1 to 1 µM	> 90%					C[C@@H]1CN(c2cccc(-c3csc(NC(=O)CNC(=O)c4ccc5c(c4)[C@@](C)(F)COC5)n3)n2)C[C@H](C)O1 [Compound 412, (R)-N-(2-((4-(6-((cis)-2,6-dimethylmorpholino)pyridin-2-yl)thiazol-2-yl)amino)-2-oxoethyl)-4-fluoro-4-methylisochromane-6-carboxamide]
				>90%	0.1 to 1 µM	> 5 µM	> 90%	COc1cccc(-c2csc(NC(=O)CNC(=O)c3ccc4c(c3)C(C)(C#N)CCN4)n2)c1 (stereo not shown) [Compound 415, 4-cyano-N-(2-((4-(3-methoxyphenyl)thiazol-2-yl)amino)-2-oxoethyl)-4-methyl-1,2,3,4-tetrahydroquinoline-6-carboxamide]
